“And” between values parts separate entries of the source, which are not always exact repeats. Equal entries are not always repeated. Inconclusive results and toxic doses are left out. How the source made its calls: active means survival T/C of 150% or more; inactive means T/C below 125% in these data.
Test system: CD2F1 mice, L1210 leukemia ip, survival T/C
Test: NCI In Vivo Anticancer Drug Screen. Data for tumor model L1210 Leukemia (intraperitoneal) in CD2F1 (CDF1) mice
Details: higher = longer survival
Outline: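 Antitumor effect is scored in animals hosting a serially transplanted tumor. Values compare compound-dosed animals against vehicle-only controls as a simple quotient.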

[1] = endpoint: mean survival time, dose: 12.5 mg/kg/injection, schedule: Q01DX009 (ip), vehicle: saline
[2] = endpoint: mean survival time, dose: 25.0 mg/kg/injection, schedule: Q04DX003 (ip), vehicle: saline
[3] = endpoint: mean survival time, dose: 100.0 mg/kg/injection, schedule: Q01DX009 (ip), vehicle: saline with Tween-80

Measured: T/C

O=c1ccccn1CC(O)S(=O)(=O)O (stereo not given)
inactive: endpoint: mean survival time, dose: 100.0 mg/kg/injection, schedule: Q04DX003 (ip), vehicle: saline 95 % of control | endpoint: mean survival time, dose: 200.0 mg/kg/injection, schedule: Q04DX003 (ip), vehicle: saline 92 % of control | endpoint: mean survival time, dose: 400.0 mg/kg/injection, schedule: Q04DX003 (ip), vehicle: saline 100 % of control

CCOC(=O)c1ccc(N/C(C)=C/C(=O)OC)cc1
inactive: endpoint: mean survival time, dose: 75.0 mg/kg/injection, schedule: Q04DX003 (ip), vehicle: saline 94 % of control | endpoint: mean survival time, dose: 150.0 mg/kg/injection, schedule: Q04DX003 (ip), vehicle: saline 91 % of control

O=C1OC(c2ccccc2)(c2ccccc2)C(=O)N1c1ccc(Br)cc1
inactive: endpoint: median survival time, dose: 3.13 mg/kg/injection, schedule: Q04DX002 (ip), vehicle: saline with Tween-80 100 % of control | endpoint: median survival time, dose: 6.25 mg/kg/injection, schedule: Q04DX002 (ip), vehicle: saline with Tween-80 100 % of control | endpoint: median survival time, dose: 12.5 mg/kg/injection, schedule: Q04DX002 (ip), vehicle: saline with Tween-80 111 % of control | endpoint: median survival time, dose: 25.0 mg/kg/injection, schedule: Q04DX002 (ip), vehicle: saline with Tween-80 111 % of control | endpoint: median survival time, dose: 25.0 mg/kg/injection, schedule: Q04DX003 (ip), vehicle: saline with Tween-80 94 % of control

C1CCN(CN2CCCCC2)CC1
inactive: [1] 103 % of control | endpoint: mean survival time, dose: 25.0 mg/kg/injection, schedule: Q01DX009 (ip), vehicle: saline 98 % of control | [2] 90 % of control | endpoint: mean survival time, dose: 50.0 mg/kg/injection, schedule: Q01DX009 (ip), vehicle: saline 97 % of control | endpoint: mean survival time, dose: 50.0 mg/kg/injection, schedule: Q04DX003 (ip), vehicle: saline 92 % of control

O=C(O)CCn1cccc1
inactive: endpoint: mean survival time, dose: 100.0 mg/kg/injection, schedule: Q01DX001 (ip), vehicle: saline with Tween-80 91 % of control | endpoint: mean survival time, dose: 200.0 mg/kg/injection, schedule: Q01DX001 (ip), vehicle: saline with Tween-80 89 % of control

CC(=O)Nc1ccc2c(c1)CCCC2
inactive: endpoint: mean survival time, dose: 100.0 mg/kg/injection, schedule: Q04DX002 (ip), vehicle: saline with Tween-80 101 % of control | endpoint: mean survival time, dose: 200.0 mg/kg/injection, schedule: Q04DX002 (ip), vehicle: saline with Tween-80 104 % of control | endpoint: mean survival time, dose: 400.0 mg/kg/injection, schedule: Q04DX002 (ip), vehicle: saline with Tween-80 104 % of control

CC(C)=CCNc1ncnc2c1ncn2C1OC(CO)C(O)C1O (stereo not given)
inactive: [3] 95 % of control | endpoint: mean survival time, dose: 100.0 mg/kg/injection, schedule: Q04DX003 (ip), vehicle: saline with Tween-80 91 % of control | endpoint: mean survival time, dose: 200.0 mg/kg/injection, schedule: Q04DX003 (ip), vehicle: saline with Tween-80 101 % of control | endpoint: mean survival time, dose: 400.0 mg/kg/injection, schedule: Q04DX003 (ip), vehicle: saline with Tween-80 100 % of control

COc1ccc([I+]c2cccc(Cl)c2)cc1Cl
inactive: endpoint: mean survival time, dose: 0.37 mg/kg/injection, schedule: Q01DX009 (ip), vehicle: saline with Tween-80 97 % of control | endpoint: mean survival time, dose: 0.75 mg/kg/injection, schedule: Q01DX009 (ip), vehicle: saline with Tween-80 107 % of control | endpoint: mean survival time, dose: 1.5 mg/kg/injection, schedule: Q01DX009 (ip), vehicle: saline with Tween-80 98 % of control | endpoint: mean survival time, dose: 3.0 mg/kg/injection, schedule: Q01DX009 (ip), vehicle: saline with Tween-80 110 % of control | endpoint: mean survival time, dose: 6.0 mg/kg/injection, schedule: Q01DX009 (ip), vehicle: saline with Tween-80 107 % of control | endpoint: mean survival time, dose: 12.0 mg/kg/injection, schedule: Q01DX009 (ip), vehicle: saline with Tween-80 109 % of control | endpoint: median survival time, dose: 12.5 mg/kg/injection, schedule: Q01DX009 (ip), vehicle: saline with Tween-80 116 % of control | endpoint: median survival time, dose: 25.0 mg/kg/injection, schedule: Q01DX009 (ip), vehicle: saline with Tween-80 116 % of control

CS(=O)(=O)C(Br)S(C)(=O)=O
inactive: endpoint: mean survival time, dose: 3.13 mg/kg/injection, schedule: Q01DX009 (ip), vehicle: saline 102 % of control | endpoint: mean survival time, dose: 6.25 mg/kg/injection, schedule: Q01DX009 (ip), vehicle: saline 102 % of control | endpoint: mean survival time, dose: 6.25 mg/kg/injection, schedule: Q04DX003 (ip), vehicle: saline 96 % of control | [1] 101 % of control | endpoint: mean survival time, dose: 12.5 mg/kg/injection, schedule: Q04DX003 (ip), vehicle: saline 93 % of control | [2] 109 % of control

COc1c2c(c(OC)c3c1C(=O)c1ccccc1C3=O)CC=CC2
inactive: endpoint: mean survival time, dose: 12.5 mg/kg/injection, schedule: Q01DX009 (ip), vehicle: other 105 % of control | endpoint: mean survival time, dose: 25.0 mg/kg/injection, schedule: Q01DX009 (ip), vehicle: other 100 % of control | endpoint: mean survival time, dose: 44.0 mg/kg/injection, schedule: Q01DX009 (ip), vehicle: other 92 % of control | endpoint: mean survival time, dose: 50.0 mg/kg/injection, schedule: Q01DX009 (ip), vehicle: other 96 % of control | endpoint: mean survival time, dose: 66.0 mg/kg/injection, schedule: Q01DX009 (ip), vehicle: other 90 % of control | endpoint: mean survival time, dose: 100.0 mg/kg/injection, schedule: Q01DX009 (ip), vehicle: other 121 % of control and 90 % of control | endpoint: mean survival time, dose: 200.0 mg/kg/injection, schedule: Q01DX009 (ip), vehicle: other 105 % of control

CCOC(=O)NS(=O)(=O)Nc1ccccc1
inactive: [3] 104 % of control | endpoint: mean survival time, dose: 200.0 mg/kg/injection, schedule: Q01DX009 (ip), vehicle: saline with Tween-80 102 % of control | endpoint: mean survival time, dose: 400.0 mg/kg/injection, schedule: Q01DX009 (ip), vehicle: saline with Tween-80 96 % of control

N#CCCCCN=[N+]=[N-]
inactive: endpoint: mean survival time, dose: 75.0 mg/kg/injection, schedule: Q01DX001 (ip), vehicle: saline 97 % of control | endpoint: mean survival time, dose: 150.0 mg/kg/injection, schedule: Q01DX001 (ip), vehicle: saline 103 % of control
